These results are taken from US11939314B2, “Quinolin-2-one derivatives” (MERCK PATENT GMBH, priority 2016, dated 2024).

Each structure is given as a SMILES string.

In one test the target is T1, c-Kit(V654A) (Homo sapiens, UniProt P10721, V654A).
T1 construct: amino acids 544-end containing the V654A mutation; GST (N)
Nature of the test: c-Kit(V654A) assay. Particulars: recombinant human c-Kit aa 544-end, 200 μM ATP, 1.4E-06 means 1.4×10^−6, read-out: Inhibition (IC50) of c-KIT (V654A). The class given is biochemical. Put shortly:
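Radiometric filter-binding read-out: substrate 33P incorporation counted by scintillation after P30 filtermat washes in 75 mM phosphoric acid and methanol. Enzyme: N-GST recombinant human c-Kit aa 544-end carrying V654A.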

The target of the next test is T2, PDGFRalpha(V561D) (Homo sapiens, UniProt P16234, V561D).
T2 construct: recombinant human PDGFRalpha, amino acids 550end containing the V561 D mutation; 6His (N)
Kind of test: PDGFRalpha(V561D) assay. Particulars: recombinant human PDGFRalpha aa 550-end, 200 μM ATP, 1.4E-06 means 1.4×10^−6, read-out: Inhibition (IC50) of PDGFRα (V561D). In kind it is biochemical. The essentials:
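Radiometric filter-binding assay: substrate phosphorylation by recombinant N-His-tagged human PDGFRα 550-end V561D was quenched with 3% phosphoric acid after 40 min at room temperature, then counted.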

Test [1] deals with GISTs with primary mutation. Particulars: secondary resistance emerges in almost all tumors; cited from earlier work.

T1 sequence (P10721 544-976 V654A): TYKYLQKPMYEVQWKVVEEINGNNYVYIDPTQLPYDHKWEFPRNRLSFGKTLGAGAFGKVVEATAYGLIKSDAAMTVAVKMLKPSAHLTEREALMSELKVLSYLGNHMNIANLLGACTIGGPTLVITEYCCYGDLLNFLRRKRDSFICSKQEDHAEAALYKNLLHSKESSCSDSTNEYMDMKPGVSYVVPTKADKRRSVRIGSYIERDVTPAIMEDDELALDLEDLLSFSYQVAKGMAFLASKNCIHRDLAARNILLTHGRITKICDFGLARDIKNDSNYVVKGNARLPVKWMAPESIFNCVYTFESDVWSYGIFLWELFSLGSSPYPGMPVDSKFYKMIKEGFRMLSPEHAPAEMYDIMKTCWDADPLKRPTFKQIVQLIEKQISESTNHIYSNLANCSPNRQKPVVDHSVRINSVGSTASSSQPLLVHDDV
T2 sequence (P16234 550-1089 V561D): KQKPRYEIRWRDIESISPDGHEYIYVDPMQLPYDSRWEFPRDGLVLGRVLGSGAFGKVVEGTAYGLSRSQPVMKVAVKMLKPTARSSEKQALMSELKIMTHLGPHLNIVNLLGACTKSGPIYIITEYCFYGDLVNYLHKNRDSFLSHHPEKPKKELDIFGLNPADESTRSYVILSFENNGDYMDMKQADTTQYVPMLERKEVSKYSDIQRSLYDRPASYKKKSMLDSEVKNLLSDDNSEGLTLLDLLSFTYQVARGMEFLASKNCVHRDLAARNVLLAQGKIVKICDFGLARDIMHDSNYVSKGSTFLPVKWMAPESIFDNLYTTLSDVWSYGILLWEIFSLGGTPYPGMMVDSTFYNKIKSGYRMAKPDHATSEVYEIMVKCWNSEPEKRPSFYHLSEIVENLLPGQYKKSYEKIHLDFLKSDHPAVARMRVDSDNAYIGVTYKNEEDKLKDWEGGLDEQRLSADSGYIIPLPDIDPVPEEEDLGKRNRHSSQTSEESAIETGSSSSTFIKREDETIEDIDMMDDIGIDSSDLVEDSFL

For the compound `CC(=O)N(C)c1ccc(-n2cc(-c3cc4cc(F)c(F)cc4[nH]c3=O)nn2)cc1` [A352, N-{4-[4-(6,7-difluoro-2-oxo-1,2-dihydro-quinolin-3-yl)-[1,2,3]triazol-1-yl]-phenyl}-N-methyl-acetamide], the values for the IC50 at c-Kit(V654A) and at PDGFRalpha(V561D) were 260 nM and 440 nM, respectively. For `CC(=O)N(C)c1ccc(-n2cc(-c3cc4cc(F)ccc4[nH]c3=O)nn2)cc1` [A353, N-{4-[4-(6-fluoro-2-oxo-1,2-dihydro-quinolin-3-yl)-[1,2,3]triazol-1-yl]-phenyl}-N-methyl-acetamide], the IC50 (usually the midpoint of a concentration-inhibition curve) was 94 nM at c-Kit(V654A) and 190 nM on PDGFRalpha(V561D).

Consider `CN1Cc2cc(-n3cc(-c4cc5cc(F)ccc5[nH]c4=O)nn3)ccc2C1=O` [A354, 6-fluoro-3-[1-(2-methyl-1-oxo-2,3-dihydro-1H-isoindol-5-yl)-1H-[1,2,3]triazol-4-yl]-1H-quinolin-2-one], for which the figures for the 50% inhibitory concentration (IC50) at c-Kit(V654A) and at PDGFRalpha(V561D) were 3100 nM and 420 nM, respectively. As for `CN1CC[C@@H](Oc2ccc(-n3cc(-c4cc5cc(F)ccc5[nH]c4=O)nn3)cc2)C1` [A367, 6-fluoro-3-{1-[4-((R)-1-methyl-pyrrolidin-3-yloxy)-phenyl]-1H-[1,2,3]triazol-4-yl}-1H-quinolin-2-one], the IC50 worked out at 19 nM on c-Kit(V654A) and 70 nM at PDGFRalpha(V561D). On the same counts, the results for `CN1CC[C@H](Oc2ccc(-n3cc(-c4cc5cc(Cl)ccc5[nH]c4=O)nn3)cc2)C1` [A368, 6-chloro-3-{1-[4-((S)-1-methyl-pyrrolidin-3-yloxy)-phenyl]-1H-[1,2,3]triazol-4-yl}-1H-quinolin-2-one] are 23 nM and 34 nM. In the same order, the values of `CN1CC[C@@H](Oc2ccc(-n3cc(-c4cc5cc(Cl)ccc5[nH]c4=O)nn3)cc2)C1` [A369, 6-chloro-3-{1-[4-((R)-1-methyl-pyrrolidin-3-yloxy)-phenyl]-1H-[1,2,3]triazol-4-yl}-1H-quinolin-2-one] are 13 nM and 34 nM.

In the case of `CN1CC[C@H](Oc2ccc(-n3cc(-c4cc5cc(F)ccc5[nH]c4=O)nn3)cc2)C1` [A370, 6-fluoro-3-{1-[4-((S)-1-methyl-pyrrolidin-3-yloxy)-phenyl]-1H-[1,2,3]triazol-4-yl}-1H-quinolin-2-one], the IC50 on c-Kit(V654A) is 31 nM; at PDGFRalpha(V561D) it was 58 nM. As for `CN1CCC(Cc2ccc(-n3cc(-c4cc5cc(F)ccc5[nH]c4=O)nn3)cc2)CC1` [A371, 6-fluoro-3-{1-[4-(1-methyl-piperidin-4-ylmethyl)-phenyl]-1H-[1,2,3]triazol-4-yl}-1H-quinolin-2-one], the IC50 on c-Kit(V654A) amounted to 34 nM; at PDGFRalpha(V561D), 11 nM.

As to `Cc1ccc(NC(=O)c2ccc(CN3CCN(C)CC3)cc2)cc1Nc1nccc(-c2cccnc2)n1` [Imatinib, imatinib], in test [1], the initial response rate was about 70%.
